Entries after “also recorded” stand apart in the source; their conditions may differ. Marks after values point to notes of the source that are not given here.
Columns and labels:
[1] = Mouse pharmacokinetic studies of; type: in vivo, CD-1 mice
[2] = Rat pharmacokinetic study of; type: in vivo, Sprague-Dawley rats; conditions: for AUC/dose: plasma
Screening of = type: in vivo, CD-1 mice; conditions: male mice, three timepoints; for Relative BA (plasma AUClast p.o. / i.p.) / AUClast of (2R,6R)-HNK in plasma / AUC (systemic exposure to (2R,6R)-HNK): 50 mg/kg; for Cmax of (2R,6R)-HNK in plasma: 50 mg/kg of the compound
mice [3] = test: Open-field test; type: in vivo, CD-1 mice; conditions: vs saline; for Open-field total distance travelled: 15, 50, 150, 450 mg/kg p.o., 60 min after administration
mice [4] = test: Adverse effects screening; type: in vivo, CD-1 mice
mice [5] = test: Forced-swim test; type: in vivo, CD-1 mice; conditions: vs saline
mice [6] = test: Learned helplessness test; type: in vivo, CD-1 mice; conditions: vs saline; for Learned helplessness: escape failures in the last 10 trials: p<0.001
[7] = Canine pharmacokinetic study of; conditions: for AUC0→∞ / t1/2 / Cmax: dog plasma
[8] = rats; ref Moaddel et al., 2015; cited from earlier work
[9] = brain, female mice, i.v., 50 mg/kg
[10] = brain, female mice, p.o., 50 mg/kg
[11] = brain, male mice, i.p., 50 mg/kg
[12] = brain, male mice, i.v., 50 mg/kg
[13] = male mice, p.o., 50 mg/kg, cohort p.o. vs i.p.
[14] = male mice, p.o., 10 min, cohort p.o. vs i.v.
[15] = plasma, female mice, i.v., 50 mg/kg
[16] = plasma, female mice, p.o., 50 mg/kg
[17] = 15 mg/kg i.p., 24-hour re-test, p<0.01
[18] = 15 mg/kg i.p., one hour after administration, p<0.05

N[C@@]1(c2ccccc2Cl)CCC[C@@H](O)C1=O [(2R,6R)-HNK, (2R,6R)-hydroxynorketamine]
AUC0→∞ [1, 9]: 9.53 µg·h/g | t1/2 [1, 9]: 36 min | AUC0→∞ [1, 10]: 6.96 µg·h/g | t1/2 [1, 10]: 42 min | Cmax ([1]; brain, female mice, p.o., single 50 mg/kg): 11.6 µg/g | AUC0→∞ [1, 11]: 4.94 µg·h/g | t1/2 [1, 11]: 24 min | Cmax ([1]; brain, male mice, i.p., single 50 mg/kg): 12.7 µg/g | AUC0→∞ [1, 12]: 8.38 µg·h/g | t1/2 [1, 12]: 30 min | t1/2 ([1]; brain, male mice, p.o., 50 mg/kg): 42 min | AUC0→∞ ([1]; brain, male mice, p.o., 50 mg/kg, range of two cohorts): 2.85−5.19 μg/g×h | Cmax ([1]; brain, male mice, p.o., single 50 mg/kg, range of two cohorts): 6.49−8.60 μg/g | Absolute BA (plasma AUC0→∞ p.o. / i.v.) ([1]; female mice, 50 mg/kg): 52% | maximal levels p.o. lower than i.v. ([1]; female mice, 50 mg/kg, plasma): 1.7 × | Cl ([1]; female mice, i.v.): 51 mL/min/kg | Vss ([1]; female mice, i.v.): 0.80 L/kg | Brain to plasma ratio ([1]; female mice, i.v., 50 mg/kg): 0.67 | AUC/dose ([1]; female mice, i.v., plasma): 0.330 µg·kg·h/mL/mg | Brain to plasma ratio ([1]; female mice, p.o., 50 mg/kg): 0.95 | AUC/dose ([1]; female mice, p.o., plasma): 0.170 µg·kg·h/mL/mg | Absolute BA (plasma AUC0→∞ p.o. / i.v.) ([1]; male mice, 50 mg/kg): 46% | maximal brain concentration p.o. as % of i.p. ([1]; male mice, 50 mg/kg): 51% | maximal plasma concentration p.o. as % of i.p. ([1]; male mice, 50 mg/kg): 44.1% | Relative BA (plasma AUC0→∞ p.o. / i.p.) ([1]; male mice, 50 mg/kg, five timepoints): 62% | highest concentrations p.o. lower than i.p. and i.v. ([1]; male mice, 50 mg/kg, plasma and brain): 2–3 fold | brain concentration p.o. as % of i.v. ([1]; male mice, 10 min after dosing, 50 mg/kg): 42% | Brain to plasma ratio ([1]; male mice, i.p., 50 mg/kg): 0.96 | Cl ([1]; male mice, i.v.): 74 mL/min/kg | Vss ([1]; male mice, i.v.): 1.7 L/kg | Brain to plasma ratio ([1]; male mice, i.v., 50 mg/kg): 0.86 | AUC/dose ([1]; male mice, i.v., plasma, normalized to free drug dose): 0.226 µg·kg·h/mL/mg | maximal brain concentration [1, 13]: 6.49 µg/g | maximal plasma concentration [1, 13]: 5.90 µg/mL | Brain to plasma ratio ([1]; male mice, p.o., 50 mg/kg, range of two cohorts): 0.90−1.16 | brain concentration at earliest timepoint [1, 14]: 8.60 µg/g | plasma concentration at earliest timepoint [1, 14]: 5640 ng/mL | Brain to plasma exposure ratio (brain penetrance) ([1]; male mice, p.o., cohort p.o. vs i.p.): 0.90 | Brain penetrance (brain to plasma ratio) ([1]; male mice, p.o., cohort p.o. vs i.v.): 1.16 | AUC/dose ([1]; male mice, p.o., plasma, normalized to free drug dose): 0.104 µg·kg·h/mL/mg | Brain to plasma ratio ([1]; mice and rats, following oral administration (abstract)): 0.67–1.2 | Brain to plasma ratio ([1]; mice, both sexes and all routes of administration): 0.67–1.2 | clearance ([1]; mice, i.v., range of sexes): 51 to 74 mL/min/kg | dose-normalized plasma exposure (AUC/dose) ([1]; mice, i.v., range of sexes): 0.226 to 0.330 µg·kg·h/mL/mg | highest plasma concentrations in females higher than in males ([1]; mice, p.o. and i.v., 50 mg/kg): 1.5–2.6 × | dose-normalized plasma exposure (AUC/dose) ([1]; mice, p.o., range of sexes): 0.104 to 0.170 µg·kg·h/mL/mg | Tmax ([1]; mice, plasma and brain, all routes (i.p., p.o., i.v.), 50 mg/kg): 10 min | half-life (t1/2) ([1]; mice, plasma, range over routes and sexes): 12 to 48 min | absolute oral BA ([1]; mice, range of males and females): 46–52% | AUC0→∞ [1, 15]: 14.2 µg·h/mL | t1/2 [1, 15]: 12 min | AUC0→∞ [1, 16]: 7.33 µg·h/mL | t1/2 [1, 16]: 18 min | Cmax ([1]; plasma, female mice, p.o., single 50 mg/kg): 14.7 µg/mL | t1/2 ([1]; plasma, male mice, i.p., 50 mg/kg): 30 min | AUC0→∞ ([1]; plasma, male mice, i.p., single 50 mg/kg): 5.12 µg·h/mL | Cmax ([1]; plasma, male mice, i.p., single 50 mg/kg (43.1 mg/kg free base), five timepoints): 13.4 µg/mL | t1/2 ([1]; plasma, male mice, i.v., 50 mg/kg): 30 min | AUC0→∞ ([1]; plasma, male mice, i.v., single 50 mg/kg): 9.76 µg·h/mL | t1/2 ([1]; plasma, male mice, p.o., 50 mg/kg): 48 min | AUC0→∞ ([1]; plasma, male mice, p.o., single 50 mg/kg, range of two cohorts): 3.18−4.49 μg/mL×h | Cl ([2]; male rats, i.v.): 27 mL/min/kg | Vss ([2]; male rats, i.v.): 7.5 L/kg | AUC/dose ([2]; male rats, i.v.): 0.627 µg·kg·h/mL/mg | AUC/dose ([2]; male rats, p.o.): 0.265 µg·kg·h/mL/mg | AUC0→∞ ([2]; rat brain, i.v., 10 mg/kg): 6090 ng·h/mL | t1/2 ([2]; rat brain, i.v., 10 mg/kg): 528 min | Cmax ([2]; rat brain, i.v., 10 mg/kg, measured five minutes after dosing, not actual peak): 9.13^a μg/mL | AUC0→∞ ([2]; rat brain, p.o., 10 mg/kg): 2580 ng·h/mL | Cmax ([2]; rat brain, p.o., 10 mg/kg): 1.52 µg/mL | t1/2 ([2]; rat brain, p.o., 10 mg/kg): 342 min | AUC0→∞ ([2]; rat plasma, i.v., 10 mg/kg): 6270 ng·h/mL | t1/2 ([2]; rat plasma, i.v., 10 mg/kg): 480 min | Cmax ([2]; rat plasma, i.v., 10 mg/kg, measured five minutes after dosing, not actual peak): 9.56^a μg/mL | AUC0→∞ ([2]; rat plasma, p.o., 10 mg/kg): 2650 ng·h/mL | t1/2 ([2]; rat plasma, p.o., 10 mg/kg): 414 min | Cmax ([2]; rat plasma, p.o., single 10 mg/kg (free drug dose), eight timepoints): 1.50 µg/mL | BA (absolute oral) ([2]; rats, 10 mg/kg p.o. vs i.v., plasma AUC0→∞): 42% | Brain to plasma ratio ([2]; rats, both i.v. and p.o., 10 mg/kg): 0.97 | time of peak concentration ([2]; rats, plasma and brain, i.v., 10 mg/kg): 0.083 h | Relative BA (plasma AUClast p.o. / i.p.) (Screening of): 47% | Cmax of (2R,6R)-HNK in plasma (Screening of; i.p.): 13400 ng/mL | AUClast of (2R,6R)-HNK in plasma (Screening of; i.p.): 5910 ng·h/mL | Cmax of (2R,6R)-HNK in plasma (Screening of; p.o.): 5900 ng/mL | AUC (systemic exposure to (2R,6R)-HNK) (Screening of; p.o.): 2.80 µg/mL/h | AUClast of (2R,6R)-HNK in plasma (Screening of; p.o.): 2800 ng·h/mL | Open-field total distance travelled (mice [3]): did not alter the total distance travelled at any dose tested | Open-field total distance travelled (mice [3]; listed as (2R,6R)-hydroxynorketamine): did not alter locomotor activity | Open-field time spent in the center (central 50%) of the arena (mice [3]; 15-450 mg/kg p.o., 60 min): no significant effect; also recorded: did not alter | Backwards movement, mean score±SEM (mice [4]; 450 mg/kg p.o., 60 min): 0 | Ptosis, mean score±SEM (mice [4]; 450 mg/kg p.o., 60 min): 0 | Sniffing, mean score±SEM (mice [4]; 450 mg/kg p.o., 60 min): 0 | Tail flicking, mean score±SEM (mice [4]; 450 mg/kg p.o., 60 min): 0 | Piloerection, mean score±SEM (mice [4]; 450 mg/kg p.o., observed over 60 min, n=4/group): 0.25±0.25 | Overall adverse effects (mice [4]; up to a dose of 450 mg/kg p.o.): minimal, if any, adverse effects | Forced-swim test immobility time (mice [5]; [17]): reduced immobility time | Forced-swim test immobility time (mice [5]; [18]): reduced immobility time | Forced-swim test immobility time (mice [5]; 15-150 mg/kg p.o., 24 h after treatment, p<0.01): reductions in immobility time | Forced-swim test immobility time (mice [5]; 15-150 mg/kg p.o., one hour after treatment, p<0.05): reductions in immobility time | Learned helplessness: escape failures in the last 10 trials (mice [6]; 50 mg/kg i.p., 24 h after treatment): reduced | Learned helplessness: total number of escape failures (mice [6]; 50 mg/kg i.p., tested 24 h after treatment, p<0.01): reduced the total number of escape failures | Learned helplessness: escape failures in the last 10 trials (mice [6]; 50 and 150 mg/kg p.o., 24 h after treatment): robust reduction in the number of escape failures; also recorded: effective at reversing helplessness | Learned helplessness: total number of escape failures (mice [6]; 50 and 150 mg/kg p.o., 24 h after treatment, p<0.05): robust reduction in the number of escape failures; also recorded: effective at reversing helplessness | AUC0→∞ ([7]; i.v., 10 mg/kg): 7830 ng·h/mL | t1/2 ([7]; i.v., 10 mg/kg): 96 min | Cmax ([7]; i.v., 10 mg/kg, measured five minutes after dosing, not actual peak): 8.87^a μg/mL | AUC0→∞ ([7]; p.o., 10 mg/kg): 4540 ng·h/mL | t1/2 ([7]; p.o., 10 mg/kg): 90 min | Cmax ([7]; p.o., single 10 mg/kg (free drug dose)): 3.44 µg/mL | BA (absolute oral) ([7]; dogs, 10 mg/kg p.o. vs i.v.): 58% | time of peak plasma concentration ([7]; dogs, i.v., 10 mg/kg, first collection time point): five minutes | Tmax ([7]; dogs, plasma, p.o., 10 mg/kg): 16.8 min | Cl ([7]; male dogs, i.v.): 21 mL/min/kg | Vss ([7]; male dogs, i.v.): 1.2 L/kg | AUC/dose ([7]; male dogs, i.v., plasma): 0.783 µg·kg·h/mL/mg | AUC/dose ([7]; male dogs, p.o., plasma): 0.454 µg·kg·h/mL/mg

CNC1(c2ccccc2Cl)CCCCC1=O (racemic) [ketamine, (R,S)-ketamine, reference compound]
Forced-swim test immobility time (mice [5]; [17]): reduced immobility time | Forced-swim test immobility time (mice [5]; [18]): reduced immobility time

CCCCCCCC(=O)O[C@@H]1CCC[C@@](N)(c2ccccc2Cl)C1=O [Compound 2d]
Relative BA (plasma AUClast p.o. / i.p.) (Screening of): 10% | AUC (systemic exposure to (2R,6R)-HNK) (Screening of; p.o.): 0.782 µg/mL/h

N[C@@]1(c2ccccc2Cl)CCC[C@@H](OC(=O)c2ccccc2)C1=O [Compound 2e]
Relative BA (plasma AUClast p.o. / i.p.) (Screening of): 44%

CC(=O)O[C@@H]1CCC[C@@](N)(c2ccccc2Cl)C1=O [Compound 2a]
Relative BA (plasma AUClast p.o. / i.p.) (Screening of): 28% | AUC (systemic exposure to (2R,6R)-HNK) (Screening of; p.o.): 2.26 µg/mL/h

N[C@]1(c2ccccc2Cl)CCC[C@H](O)C1=O [(2S,6S)-HNK, (2S,6S)-hydroxynorketamine]
oral BA [8]: approximately 46%

CCCCC(=O)O[C@@H]1CCC[C@@](N)(c2ccccc2Cl)C1=O [Compound 2c]
Relative BA (plasma AUClast p.o. / i.p.) (Screening of): 26%

CCC(=O)O[C@@H]1CCC[C@@](N)(c2ccccc2Cl)C1=O [Compound 2b]
Relative BA (plasma AUClast p.o. / i.p.) (Screening of): 30%

From paper PMC6541551 (Journal of psychopharmacology (Oxford, England), 2018)
